Experiment [1] deals with HDAC1 (Homo sapiens (Human), UniProt Q13547). To be noted: read-out: HDAC1 IC50.
The target in experiment [2] is HDAC8 (Homo sapiens (Human), UniProt Q9BY41). The conditions noted are these: read-out: HDAC8 IC50.

SMILES strings stand for the structures.

HDAC8, sequence (Q9BY41 whole entry): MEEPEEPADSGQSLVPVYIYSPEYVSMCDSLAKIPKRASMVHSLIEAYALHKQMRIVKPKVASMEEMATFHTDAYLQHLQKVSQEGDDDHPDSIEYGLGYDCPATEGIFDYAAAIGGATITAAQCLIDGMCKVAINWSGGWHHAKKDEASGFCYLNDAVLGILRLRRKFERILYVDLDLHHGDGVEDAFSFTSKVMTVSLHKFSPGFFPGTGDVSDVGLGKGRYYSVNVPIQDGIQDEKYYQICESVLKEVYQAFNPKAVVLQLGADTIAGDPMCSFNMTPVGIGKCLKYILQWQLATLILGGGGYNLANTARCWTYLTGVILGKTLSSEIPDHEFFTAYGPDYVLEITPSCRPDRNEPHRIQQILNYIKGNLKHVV
HDAC1, sequence (Q13547 whole entry): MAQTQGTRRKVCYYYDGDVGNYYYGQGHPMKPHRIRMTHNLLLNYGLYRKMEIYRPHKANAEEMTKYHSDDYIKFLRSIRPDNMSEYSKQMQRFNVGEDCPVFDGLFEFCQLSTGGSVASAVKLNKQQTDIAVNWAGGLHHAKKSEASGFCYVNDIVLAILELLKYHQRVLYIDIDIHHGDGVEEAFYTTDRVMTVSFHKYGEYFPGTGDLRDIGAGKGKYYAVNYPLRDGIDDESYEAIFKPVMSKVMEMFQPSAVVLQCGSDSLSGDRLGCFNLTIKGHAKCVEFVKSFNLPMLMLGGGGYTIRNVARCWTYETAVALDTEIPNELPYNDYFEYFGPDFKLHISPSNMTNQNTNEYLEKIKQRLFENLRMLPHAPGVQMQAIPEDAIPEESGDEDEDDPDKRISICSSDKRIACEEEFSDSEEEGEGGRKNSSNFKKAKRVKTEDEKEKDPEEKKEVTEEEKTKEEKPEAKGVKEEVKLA

`CS(=O)(=O)N1CC(C(=O)N(Cc2ccc(-c3noc(C(F)(F)F)n3)cn2)c2cccc(F)c2)C1` [Example 404, N-(3-fluorophenyl)-1-(methylsulfonyl)-N-({5-[5-(trifluoromethyl)-1,2,4-oxadiazol-3-yl]pyridin-2-yl}methyl)azetidine-3-carboxamide]: the IC50 in experiment [1] worked out at 280 nM; in experiment [2], 1300 nM.
Regarding `Cc1ccc(C(=O)N(Cc2ccc(-c3noc(C(F)(F)F)n3)cn2)c2cccc(F)c2)nn1` [Example 400, N-(3-fluorophenyl)-6-methyl-N-({5-[5-(trifluoromethyl)-1,2,4-oxadiazol-3-yl]pyridin-2-yl}methyl)pyridazine-3-carboxamide], the half-maximal inhibitory concentration (IC50) amounted to 260 nM in experiment [1] and 3200 nM in experiment [2].
As to `CC(C)(C)OC(=O)[C@@H]1CCC(=O)N1c1ccc(-c2noc(C(F)(F)F)n2)cc1F` [Example 125, tert-butyl (S)-1-(2-fluoro-4-(5-(trifluoromethyl)-1,2,4-oxadiazol-3-yl)phenyl)-5-oxopyrrolidine-2-carboxylate], the 50% inhibitory concentration (IC50) is 430 nM in experiment [1] and 6200 nM in experiment [2].
For the molecule `CC(C)(C)OC(=O)[C@@H]1CCC(=O)N1c1ccc(-c2noc(C(F)(F)F)n2)c(F)c1` [Example 331, tert-butyl 1-{3-fluoro-4-[5-(trifluoromethyl)-1,2,4-oxadiazol-3-yl]phenyl}-5-oxo-L-prolinate], the IC50 in experiment [1] was found to be 4900 nM; in experiment [2] it was 19000 nM.
Take `O=C1COC[C@@H](CNCc2ccc(-c3noc(C(F)(F)F)n3)cn2)N1` [Example 450, (5R)-5-{[({5-[5-(trifluoromethyl)-1,2,4-oxadiazol-3-yl]pyridin-2-yl}methyl)amino]methyl}morpholin-3-one]: the IC50 in experiment [1] and in experiment [2] was 2800 nM in each case.
As to `FC(F)(F)c1nc(-c2ccc(CNc3ccc4c[nH]nc4c3)cc2)no1` [Example 411, N-{4-[5-(trifluoromethyl)-1,2,4-oxadiazol-3-yl]benzyl}-2H-indazol-6-amine], the results for the IC50 in experiment [1] and in experiment [2] were 1000 nM and 2200 nM, respectively.
For the molecule `CN1CCN(c2ccc(-c3noc(C(F)(F)F)n3)cc2)C(c2ccccc2)C1` (stereo not shown) [Example 33, 3-(4-(4-Methyl-2-phenylpiperazin-1-yl)phenyl)-5-(trifluoromethyl)-1,2,4-oxadiazole], the IC50 in experiment [1] is 5300 nM; in experiment [2] it was 3900 nM.
For `FC(F)(F)c1nc(-c2ccc(CNc3cnccn3)cc2)no1` [Example 417, N-{4-[5-(trifluoromethyl)-1,2,4-oxadiazol-3-yl]benzyl}pyrazin-2-amine] the same measures were 2600 nM and 1900 nM.
With `CN1CC(=O)N(c2ccc(-c3noc(C(F)(F)F)n3)cc2)C(c2ccccc2)C1` (stereo not shown) [Example 162, 4-methyl-6-phenyl-1-(4-(5-(trifluoromethyl)-1,2,4-oxadiazol-3-yl)phenyl)piperazin-2-one], the figures for the IC50 in experiment [1] and in experiment [2] were 850 nM and 1400 nM, respectively.
In the case of `Cc1noc([C@@H]2COCC(=O)N2c2ccc(-c3noc(C(F)(F)F)n3)cc2)n1` [Example 47, (S)-5-(3-methyl-1,2,4-oxadiazol-5-yl)-4-(4-(5-(trifluoromethyl)-1,2,4-oxadiazol-3-yl)phenyl)morpholin-3-one], the IC50 is 1500 nM in experiment [1] and 3000 nM in experiment [2].
For `O=C(Cn1ccnn1)N(Cc1ccc(-c2noc(C(F)(F)F)n2)cc1)c1cccc(C(F)(F)F)c1` [Example 76, 2-(1H-1,2,3-triazol-1-yl)-N-(4-(5-(trifluoromethyl)-1,2,4-oxadiazol-3-yl)benzyl)-N-(3-(trifluoromethyl)phenyl)acetamide] the same measures were 1000 nM and 2100 nM.
For `FC(F)(F)c1nc(-c2ccnc(OC3CCCc4ccc(Cl)nc43)c2)no1` (racemic) [Example 226, 2-chloro-8-({4-[5-(trifluoromethyl)-1,2,4-oxadiazol-3-yl]pyridin-2-yl}oxy)-5,6,7,8-tetrahydroquinoline] the same measures were 1100 nM and 850 nM.
Turning to `O=C(C1CCN(C2CC2)CC1)N(Cc1ccc(-c2noc(C(F)(F)F)n2)cn1)c1cccc(F)c1` [Example 406, 1-cyclopropyl-N-(3-fluorophenyl)-N-({5-[5-(trifluoromethyl)-1,2,4-oxadiazol-3-yl]pyridin-2-yl}methyl)piperidine-4-carboxamide], the concentration for half-maximal inhibition (IC50) in experiment [1] came out at 270 nM; in experiment [2] it was 1800 nM.
As to `O=C(Cn1cnc2ccccc21)N(Cc1ccc(-c2noc(C(F)(F)F)n2)cc1)c1cccc(C(F)(F)F)c1` [Example 98, 2-(1H-benzo[d]imidazol-1-yl)-N-(4-(5-(trifluoromethyl)-1,2,4-oxadiazol-3-yl)benzyl)-N-(3-(trifluoromethyl)phenyl)acetamide], the figures for the IC50 in experiment [1] and in experiment [2] were 4200 nM and 2300 nM, respectively.
For `O=C(C1CCS(=O)(=O)C1)N(Cc1ccc(-c2noc(C(F)(F)F)n2)cn1)c1cccc(F)c1` (racemic) [Example 54, N-(3-fluorophenyl)-N-((5-(5-(trifluoromethyl)-1,2,4-oxadiazol-3-yl)pyridin-2-yl)methyl)tetrahydrothiophene-3-carboxamide 1,1-dioxide] the same measures were 270 nM and 2600 nM.
For `FC(F)(F)c1nc(-c2ccc(CNc3cccc4[nH]ncc34)cc2)no1` [Example 415, N-{4-[5-(trifluoromethyl)-1,2,4-oxadiazol-3-yl]benzyl}-1H-indazol-4-amine] the same measures were 1600 nM and 2500 nM.
For `O=C1CCC(c2ccccc2)N1c1ncc(-c2noc(C(F)(F)F)n2)cc1F` (stereo not shown) [Example 5, 1-(3-Fluoro-5-(5-(trifluoromethyl)-1,2,4-oxadiazol-3-yl)pyridin-2-yl)-5-phenylpyrrolidin-2-one] the same measures were 2300 nM and 13000 nM.
As for `O=C(CCCn1cncn1)N(Cc1ccc(-c2noc(C(F)(F)F)n2)cc1)c1cccc(C(F)(F)F)c1` [Example 72, 4-(1H-1,2,4-triazol-1-yl)-N-(4-(5-(trifluoromethyl)-1,2,4-oxadiazol-3-yl)benzyl)-N-(3-(trifluoromethyl)phenyl)butanamide], the values for the IC50 in experiment [1] and in experiment [2] were 1900 nM and 2000 nM, respectively.
For `CN1Cc2ccc(NCc3ccc(-c4noc(C(F)(F)F)n4)cn3)cc2C1=O` [Example 356, 2-methyl-6-[({5-[5-(trifluoromethyl)-1,2,4-oxadiazol-3-yl]pyridin-2-yl}methyl)amino]-2,3-dihydro-1H-isoindol-1-one] the same measures were 280 nM and 520 nM.
For `O=C(CCn1cncn1)N(Cc1ccc(-c2noc(C(F)(F)F)n2)cc1)c1cccc(C(F)(F)F)c1` [Example 89, 3-(1H-1,2,4-triazol-1-yl)-N-(4-(5-(trifluoromethyl)-1,2,4-oxadiazol-3-yl)benzyl)-N-(3-(trifluoromethyl)phenyl)propanamide] the same measures were 1100 nM and 2000 nM.
For `Cc1nonc1CC(=O)N(Cc1ccc(-c2noc(C(F)(F)F)n2)cn1)c1cccc(F)c1` [Example 62, N-(3-fluorophenyl)-2-(4-methyl-1,2,5-oxadiazol-3-yl)-N-((5-(5-(trifluoromethyl)-1,2,4-oxadiazol-3-yl)pyridin-2-yl)methyl)acetamide] the same measures were 480 nM and 3500 nM.
As for `Cc1noc([C@H]2CCCCN2c2cc(F)c(-c3noc(C(F)(F)F)n3)cc2F)n1` [Example 121, (R)-3-(2,5-difluoro-4-(2-(3-methyl-1,2,4-oxadiazol-5-yl)piperidin-1-yl)phenyl)-5-(trifluoromethyl)-1,2,4-oxadiazole], the IC50 in experiment [1] came to 26000 nM; in experiment [2], 29000 nM.
For `FC(F)(F)c1nc(-c2ccc(CNC3CCc4[nH]nc(C(F)(F)F)c4C3)cc2)no1` (racemic) [Example 353, 3-(trifluoromethyl)-N-({4-[5-(trifluoromethyl)-1,2,4-oxadiazol-3-yl]phenyl}methyl)-4,5,6,7-tetrahydro-1H-indazol-5-amine] the same measures were 410 nM and 900 nM.
With `O=C(Cc1[nH]nc2ccccc12)N(Cc1ccc(-c2noc(C(F)(F)F)n2)cn1)c1cccc(F)c1` [Example 397, N-(3-fluorophenyl)-2-(2H-indazol-3-yl)-N-({5-[5-(trifluoromethyl)-1,2,4-oxadiazol-3-yl]pyridin-2-yl}methyl)acetamide], the IC50 in experiment [1] came out at 420 nM; in experiment [2], 1100 nM.
For `CC1(C)CCCN1C(=O)[C@@H]1CCC(=O)N1c1ccc(-c2noc(C(F)(F)F)n2)c(F)c1` [Example 342, (5S)-5-[(2,2-dimethylpyrrolidin-1-yl)carbonyl]-1-{3-fluoro-4-[5-(trifluoromethyl)-1,2,4-oxadiazol-3-yl]phenyl}pyrrolidin-2-one] the same measures were 45000 nM and 25000 nM.
For `CC1(C)CC(c2ccccc2)N(c2ccc(-c3noc(C(F)(F)F)n3)cc2F)C1=O` (racemic) [Example 312, 1-{2-fluoro-4-[5-(trifluoromethyl)-1,2,4-oxadiazol-3-yl]phenyl}-3,3-dimethyl-5-phenylpyrrolidin-2-one], the figures for the half-maximal inhibitory concentration (IC50) in experiment [1] and in experiment [2] were 1400 nM and 45000 nM, respectively.
In the case of `O=C1CCC(c2ccc(-c3noc(C(F)(F)F)n3)cc2)N1c1ccccc1F` (stereo not shown) [Example 329], the results for the IC50 in experiment [1] and in experiment [2] were 3900 nM and 7900 nM, respectively.
For `COc1ccccc1C1CCC(=O)N1c1ccc(-c2noc(C(F)(F)F)n2)cc1F` (racemic) [Example 315, 1-{2-fluoro-4-[5-(trifluoromethyl)-1,2,4-oxadiazol-3-yl]phenyl}-5-(2-methoxyphenyl)pyrrolidin-2-one] the same measures were 2100 nM and 8000 nM.
`FC(F)(F)c1nc(-c2ccc(CNC3CCc4ncccc4C3)nc2)no1` (racemic) [Example 371, N-({5-[5-(trifluoromethyl)-1,2,4-oxadiazol-3-yl]pyridin-2-yl}methyl)-5,6,7,8-tetrahydroquinolin-6-amine]: the IC50 in experiment [1] came to 450 nM; in experiment [2], 1600 nM.

The IC50 is the midpoint of a concentration-inhibition curve.

(Values after patent US11066396B2 (priority 2016, dated 2021).)
